Experimental findings from US12441730B2, “PRMT5 inhibitors” (Merck Sharp & Dohme LLC, priority 2019, dated 2025) are described below.

By EC50 is commonly meant the midpoint of the concentration-response curve.

Read-outs that look alike come from different tables or passages of the source.

Experiment [1] has as its system symmetric dimethylation of arginine (SDMA) of PRMT5 substrates in MCF-7 cells. Briefly: PRMT5 Cell Target Engagement (TE) Assay. The settings on record: 3 days treatment, SDMA high content imaging. In kind it is cell-based. An outline of the steps:
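MCF-7 cells treated 3 days at 37 °C with a ten-point 1:3 titration from 10000 nM. Fixed cells immunostained with anti-SDMA and Alexa488 secondary; nuclear fluorescence quantified by high-content imaging versus DMSO wells, with IC50 from a 4-parameter fit.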

Experiment [2] addresses T1, Full-length (FL)-PRMT5-MEP50 enzyme complex (Homo sapiens, UniProt O14744).
T1 construct: Full-length (FL)-PRMT5-MEP50 enzyme complex (recombinant proteins from baculovirus-transfected Sf21 cells: FL-PRMT5; MW=73837 kDa and FL-MEP50; MW=38614); made in house; host or cells: baculovirus-transfected Sf21 cells
Kind of experiment: PRMT5-MEP50 Enzyme Methylation Assay (Version A). It counts as biochemical. The procedure, abridged:
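Compound was pre-incubated with enzyme for 60 min, then reacted 150 min at 37° C. at final 1.0 nM PRMT5-MEP50, 15 μM SAM and 75 nM biotinylated H4R3(Me1) peptide, in 50 mM Bicine pH 8.0 with 1% DMSO. SAMDI mass-spectrometric readout of Me1→Me2 conversion. EC50 from 4- or 7-parameter regression.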

Where [3] appears, read: second value of 7 parameter biphasic fit, read-out: Enzyme Methylation Assay Version A (EC50 2).
Where [4] appears, read: single EC50 = 4 parameter single site sigmoidal fit, EC50 1 = first value of 7 parameter biphasic fit, read-out: Enzyme Methylation Assay Version A (EC50 or EC50 1).

T1 sequence (O14744 whole entry): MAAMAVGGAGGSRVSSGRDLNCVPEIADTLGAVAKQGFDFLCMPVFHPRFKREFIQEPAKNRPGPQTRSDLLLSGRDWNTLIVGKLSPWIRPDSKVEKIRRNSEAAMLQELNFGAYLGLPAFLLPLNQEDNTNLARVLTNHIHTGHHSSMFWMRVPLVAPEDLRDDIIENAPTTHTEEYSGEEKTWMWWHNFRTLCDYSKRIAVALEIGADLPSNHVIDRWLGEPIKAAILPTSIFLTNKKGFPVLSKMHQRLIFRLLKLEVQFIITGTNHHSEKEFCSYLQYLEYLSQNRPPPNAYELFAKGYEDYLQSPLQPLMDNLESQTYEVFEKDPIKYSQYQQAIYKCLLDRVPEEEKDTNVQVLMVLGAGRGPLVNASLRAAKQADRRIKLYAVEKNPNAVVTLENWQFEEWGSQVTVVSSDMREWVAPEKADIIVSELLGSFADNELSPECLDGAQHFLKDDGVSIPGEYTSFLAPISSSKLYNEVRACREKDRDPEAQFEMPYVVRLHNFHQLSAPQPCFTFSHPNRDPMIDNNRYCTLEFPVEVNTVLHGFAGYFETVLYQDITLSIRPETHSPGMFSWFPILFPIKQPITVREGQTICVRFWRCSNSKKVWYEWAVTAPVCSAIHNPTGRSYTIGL
T1 sequence (Q9BQA1 whole entry partner): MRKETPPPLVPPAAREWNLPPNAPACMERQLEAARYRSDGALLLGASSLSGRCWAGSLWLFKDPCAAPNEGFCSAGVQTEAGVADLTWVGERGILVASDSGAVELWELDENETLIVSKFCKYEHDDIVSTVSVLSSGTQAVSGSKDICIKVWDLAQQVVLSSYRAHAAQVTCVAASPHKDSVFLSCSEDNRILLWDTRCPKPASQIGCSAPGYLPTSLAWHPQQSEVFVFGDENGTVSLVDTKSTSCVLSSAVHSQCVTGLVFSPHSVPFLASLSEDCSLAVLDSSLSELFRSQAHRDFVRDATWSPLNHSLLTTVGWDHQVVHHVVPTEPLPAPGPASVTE

As for `O=C(c1cn2c(n1)C(C1CCOC1)CC(C(F)(F)F)C2)N1CC[C@]2(Cc3ccccc3CN2)[C@H](O)C1` (single isomer, unassigned) [Example 160, ((3R,3′R)-3′-hydroxy-1,4-dihydro-2H-spiro[isoquinoline-3,4′-piperidin]-1′-yl)((6S,8S or 6R,8R)-8-((S or R)-tetrahydrofuran-3-yl)-6-(trifluoromethyl)-5,6,7,8-tetrahydroimidazo[1,2-a]pyridin-2-yl)methanone], the results for the EC50 in experiment [1], in experiment [2] (setting [3]) and in experiment [2] (setting [4]) were 289 nM, 9480 nM and 9.52 nM, respectively.

For `O=C(c1cn2c(n1)C(C1CCOC1)CC(C(F)(F)F)C2)N1CC[C@]2(Cc3ccccc3CN2)[C@H](O)C1` (single isomer, unassigned) [Example 161, ((3R,3′R)-3′-hydroxy-1,4-dihydro-2H-spiro[isoquinoline-3,4′-piperidin]-1′-yl)((6S,8S or 6R,8R)-8-((S or R)-tetrahydrofuran-3-yl)-6-(trifluoromethyl)-5,6,7,8-tetrahydroimidazo[1,2-a]pyridin-2-yl)methanone], the EC50 stood at 374 nM in experiment [1], 9120 nM in experiment [2] (setting [3]) and 5.9 nM in experiment [2] (setting [4]).

For `O=C(c1cn2c(n1)C(C1CCOC1)CC(C(F)(F)F)C2)N1CC[C@]2(Cc3ccccc3CN2)[C@H](O)C1` (single isomer, unassigned) [Example 162, ((3R,3′R)-3′-hydroxy-1,4-dihydro-2H-spiro[isoquinoline-3,4′-piperidin]-1′-yl)((6S,8S or 6R,8R)-8-((S or R)-tetrahydrofuran-3-yl)-6-(trifluoromethyl)-5,6,7,8-tetrahydroimidazo[1,2-a]pyridin-2-yl)methanone], the EC50 worked out at 7520 nM in experiment [1], 93300 nM in experiment [2] (setting [3]) and 260 nM in experiment [2] (setting [4]).

Consider `O=C(c1cn2c(n1)C(C1CCOC1)CC(C(F)(F)F)C2)N1CC[C@]2(Cc3ccccc3CN2)[C@H](O)C1` (single isomer, unassigned) [Example 163, ((3R,3′R)-3′-hydroxy-1,4-dihydro-2H-spiro[isoquinoline-3,4′-piperidin]-1′-yl)((6S,8S or 6R,8R)-8-((S or R)-tetrahydrofuran-3-yl)-6-(trifluoromethyl)-5,6,7,8-tetrahydroimidazo[1,2-a]pyridin-2-yl)methanone], for which the EC50 stood at 1590 nM in experiment [1], 36700 nM in experiment [2] (setting [3]) and 96.6 nM in experiment [2] (setting [4]).

As to `N#CCCC1CC(C(F)(F)F)Cn2cc(C(=O)N3CC[C@]4(Cc5ccccc5CN4)[C@H](O)C3)nc21` (single isomer, unassigned) [Example 164, 3-((6R,8S or 6S,8R)-2-((3R,3′R)-3′-hydroxy-1,4-dihydro-2H-spiro[isoquinoline-3,4′-piperidine]-1′-carbonyl)-6-(trifluoromethyl)-5,6,7,8-tetrahydroimidazo[1,2-a]pyridin-8-yl)propanenitrile], the EC50 worked out at 205 nM in experiment [1], 4620 nM in experiment [2] (setting [3]) and 4.83 nM in experiment [2] (setting [4]).

For the molecule `N#CCCC1CC(C(F)(F)F)Cn2cc(C(=O)N3CC[C@]4(Cc5ccccc5CN4)[C@H](O)C3)nc21` (single isomer, unassigned) [Example 165, 3-((6R,8S or 6S,8R)-2-((3R,3′R)-3′-hydroxy-1,4-dihydro-2H-spiro[isoquinoline-3,4′-piperidine]-1′-carbonyl)-6-(trifluoromethyl)-5,6,7,8-tetrahydroimidazo[1,2-a]pyridin-8-yl)propanenitrile], the EC50 in experiment [1] amounted to 841 nM; in experiment [2] (setting [3]), 26600 nM; in experiment [2] (setting [4]) it was 82.2 nM.

As to `CC1CC(C(F)(F)F)Cn2cc(C(=O)N3CC[C@]4(Cc5ccccc5CN4)[C@H](O)C3)nc21` (single isomer, unassigned) [Example 166, ((3R,3′R)-3′-hydroxy-1,4-dihydro-2H-spiro[isoquinoline-3,4′-piperidin]-1′-yl)((6R,8R or 6S,8S)-8-methyl-6-(trifluoromethyl)-5,6,7,8-tetrahydroimidazo[1,2-a]pyridin-2-yl)methanone], the concentration giving a half-maximal response (EC50) came out at 33.7 nM in experiment [1], 1640 nM in experiment [2] (setting [3]) and 3.64 nM in experiment [2] (setting [4]).

As for `CC1CC(C(F)(F)F)Cn2cc(C(=O)N3CC[C@]4(Cc5ccccc5CN4)[C@H](O)C3)nc21` (single isomer, unassigned) [Example 167, ((3R,3′R)-3′-hydroxy-1,4-dihydro-2H-spiro[isoquinoline-3,4′-piperidin]-1′-yl)((6R,8R or 6S,8S)-8-methyl-6-(trifluoromethyl)-5,6,7,8-tetrahydroimidazo[1,2-a]pyridin-2-yl)methanone], the values for the EC50 in experiment [1], in experiment [2] (setting [3]) and in experiment [2] (setting [4]) were 194 nM, 3630 nM and 9.55 nM, respectively.

Regarding `COC(C)c1cc(Br)cn2cc(C(=O)N3CC[C@]4(Cc5cc(Cl)ccc5CN4)[C@H](O)C3)nc12` (single isomer, unassigned) [Example 225], the EC50 in experiment [1] (Homo sapiens, MCF7, 72 h) was 22.6 nM; in experiment [2] (setting [3]), 398 nM; in experiment [2] (setting [4]), 2.1 nM.

Regarding `COC(C)c1cc(Br)cn2cc(C(=O)N3CC[C@]4(Cc5ccc(Cl)cc5CN4)[C@H](O)C3)nc12` (single isomer, unassigned) [Example 226], the EC50 was 5.04 nM in experiment [1] (Homo sapiens, MCF7, 72 h) and 1.4 nM in experiment [2] (setting [4]).

As for `Cc1ccc2c(c1)C[C@]1(CCN(C(=O)c3cn4cc(C5CC5)cnc4n3)C[C@H]1O)NC2` (single isomer, unassigned) [Example 227], the EC50 in experiment [1] (Homo sapiens, MCF7, 72 h) was found to be 26.7 nM; in experiment [2] (setting [4]), 8.47 nM.

With `COc1nc2nc(C(=O)N3CC[C@]4(Cc5ccccc5CN4)[C@H](O)C3)cn2cc1Br` (single isomer, unassigned) [Example 248], the EC50 in experiment [1] (Homo sapiens, MCF7, 72 h) was 9.35 nM; in experiment [2] (setting [3]) it was 153 nM; in experiment [2] (setting [4]), 0.556 nM.

`Cn1c(=O)c(Br)cn2cc(C(=O)N3CC[C@]4(Cc5ccccc5CN4)[C@H](O)C3)nc12` (single isomer, unassigned) [Example 249]: the EC50 in experiment [1] (Homo sapiens, MCF7, 72 h) was 311 nM; in experiment [2] (setting [3]), 8510 nM; in experiment [2] (setting [4]), 20.8 nM.

As for `COC(C)(C)c1ccc2nc(C(=O)N3CC[C@]4(Cc5ccccc5CN4)[C@H](O)C3)cn2c1` (stereo in doubt) [Example 46, (3′-hydroxy-2,4-dihydro-1H-spiro[isoquinoline-3,4′-piperidin]-1′-yl)(6-(2-methoxypropan-2-yl)imidazo[1,2-a]pyridin-2-yl)methanone], the 50% effective concentration (EC50) was found to be 27.1 nM in experiment [1] (Homo sapiens, MCF7, 72 h); 138 nM in experiment [2] (setting [3]); 0.498 nM in experiment [2] (setting [4]).

On to `O=C(c1cn2cc(Br)ccc2n1)N1CC[C@]2(Cc3ccccc3CN2)[C@H](O)C1` [Example 1, (6-bromoimidazo[1,2-a]pyridin-2-yl)((3R,3′R)-3′-hydroxy-1,4-dihydro-2H-spiro[isoquinoline-3,4′-piperidin]-1′-yl)methanone], for which the EC50 in experiment [1] (Homo sapiens, MCF7, 72 h) is 2.92 nM; in experiment [2] (setting [3]) it was 75.3 nM; in experiment [2] (setting [4]) it was 0.501 nM.

For `CN(C)C(=O)c1ccc2nc(C(=O)N3CC[C@]4(Cc5ccccc5CN4)[C@H](O)C3)cn2c1` [Example 2, 2-((3R,3′R)-3′-hydroxy-2,4-dihydro-1H-spiro[isoquinoline-3,4′-piperidin]-1′-ylcarbonyl)-N,N-dimethylimidazo[1,2-a]pyridine-6-carboxamide], the half-maximal effective concentration (EC50) in experiment [1] (Homo sapiens, MCF7, 72 h) was 75.8 nM; in experiment [2] (setting [3]), 1380 nM; in experiment [2] (setting [4]), 0.629 nM.

Regarding `O=C(c1cn2cc(Cl)cnc2n1)N1CC[C@]2(Cc3ccccc3CN2)[C@H](O)C1` [Example 3, (6-chloroimidazo[1,2-a]pyrimidin-2-yl)((3R,3′R)-3′-hydroxy-1,4-dihydro-2H-spiro[isoquinoline-3,4′-piperidin]-1′-yl)methanone], the EC50 amounted to 14.5 nM in experiment [1] (Homo sapiens, MCF7, 72 h); 918 nM in experiment [2] (setting [3]); 1.45 nM in experiment [2] (setting [4]).

`O=C(c1cn2cc(Br)cc(CO)c2n1)N1CC[C@]2(Cc3ccccc3CN2)[C@H](O)C1` [Example 6, (6-bromo-8-(hydroxymethyl)imidazo[1,2-a]pyridin-2-yl)((3R,3’R)-3′-hydroxy-1,4-dihydro-2H-spiro[isoquinoline-3,4′-piperidin]-1′-yl)methanone]: the concentration giving a half-maximal response (EC50) was found to be 3.24 nM in experiment [1] (Homo sapiens, MCF7, 72 h); 220 nM in experiment [2] (setting [3]); 0.71 nM in experiment [2] (setting [4]).

As for `O=C(c1cn2cc(Br)cc(I)c2n1)N1CC[C@]2(Cc3ccccc3CN2)[C@H](O)C1` [Example 7], the EC50 in experiment [1] (Homo sapiens, MCF7, 72 h) was determined as 0.545 nM; in experiment [2] (setting [3]), 52.5 nM; in experiment [2] (setting [4]), 0.639 nM.

As to `COc1nc(Br)cn2cc(C(=O)N3CC[C@]4(Cc5ccccc5CN4)[C@H](O)C3)nc12` [Example 8], the EC50 is 3.63 nM in experiment [1] (Homo sapiens, MCF7, 72 h); 403 nM in experiment [2] (setting [3]); 1.53 nM in experiment [2] (setting [4]).

Regarding `O=C(c1ccc2c(O)c(C3CC3)cnc2c1)N1CC[C@]2(Cc3ccccc3CN2)[C@H](O)C1` [Example 9, (3-cyclopropyl-4-hydroxyquinolin-7-yl)((3R,3’R)-3′-hydroxy-1,4-dihydro-1′H,2H-spiro[isoquinoline-3,4′-piperidin]-1′-yl)methanone], the EC50 in experiment [1] (Homo sapiens, MCF7, 72 h) is 694 nM; in experiment [2] (setting [3]), 4680 nM; in experiment [2] (setting [4]) it was 13.5 nM.

Take `CCOc1nc(Br)cn2cc(C(=O)N3CC[C@]4(Cc5ccccc5CN4)[C@H](O)C3)nc12` [Example 10]: the EC50 in experiment [1] (Homo sapiens, MCF7, 72 h) worked out at 4.21 nM; in experiment [2] (setting [3]) it was 180 nM; in experiment [2] (setting [4]), 0.815 nM.
